{
  "source": "patent US20220054445A1",
  "about": "“THERAPEUTIC METHODS AND COMPOSITIONS FOR TREATING CANCER USING 6,8-BIS-BENZYLTHIO-OCTANOIC ACID AND AN AUTOPHAGY INHIBITOR” (Rafael Pharmaceuticals, Inc., priority 2018, published 2022)",
  "key": {"[1]": {"experiment": "Animal studies of IV administration (toxicity)", "type": "in vivo", "description": "CPI-613 must be administered IV, via an IV catheter that is free flowing and free of air in the dead space of the IV catheter, to minimize vascular irritation, inflammation and acute toxicity of CPI-613. […] To avoid local reactions at and around the site of administration, CPI-613 must be administered via a central venous catheter.\nCPI-613 must not be administered as a bolus, but by infusion, at a rate of ˜0.5 mL/min, via a central venous catheter with D5W running at a rate of about 125-150 mL/hr. This is to minimize potential acute toxicity of CPI-613, according to animal studies."}, "[2]": {"tested_on": "K562 and MFL2 AML cells", "experiment": "LC3-II blot for induction of autophagy in AML cells", "type": "cell-based", "settings": "CPI-613 200 μM, 4 hours", "description": "Complete media (“Full”) and Hank's Balanced Salt Solution medium (HBSS) were used as negative and positive controls of autophagy, respectively."}, "[3]": {"experiment": "Plasma pharmacokinetics and oral bioavailability of formulations", "design": "species or system BALB/c nude mice", "settings": "mouse, in vivo", "description": "Six groups of 16 BALB/c nude mice (8 males and 8 females) per group were administered 6,8-bis-benzylthio-octanoic acid in six different ways: (1) 5 μL/g IV injection (tail vein) of the triethanolamine/dextrose aqueous solution of Example 18 (25 mg/kg; 5 mL/kg; Ex. 18A); (2) 5 μL/g IP injection of the triethanolamine/dextrose aqueous solution of Example 18 (25 mg/kg; 5 mL/kg; 18A); (3) 5 μL/g oral administration of the Eudragit L100 SDD suspension of Example 18 (100 mg/kg; 5 mL/kg; 18B); (4) 5 μL/g oral administration of the HPMCAS-M SDD suspension of Example 18 (100 mg/kg; 5 mL/kg; 18C); (5) 5 μL/g oral administration of the 20 mg/mL 6,8-bis-benzylthio-octanoic acid suspension of Example 18 (100 mg/kg; 5 mL/kg; 18D); or (6) 10 μL/g oral administration of the 10 mg/mL SOLUTOL solution of Example 18 (100 mg/kg; 10 mL/kg; 18E). In each experiment, about 80 μL of blood was collected from one subgroup of 4 male and 4 female mice at 0.083, 1, 4, and 24 hours after dosing, and from the other subgroup of 4 male and 4 female mice at 0.5, 2, and 8 hours. Plasma from the collected blood samples was analyzed by LC-MS/MS for the presence of 6,8-bis-benzylthio-octanoic acid."}, "[4]": {"tested_on": "HS-MM cells", "experiment": "DALGreen autophagy detection in HS-MM cells", "type": "cell-based", "settings": "16 hours", "description": "HS-MM cells (Sonobe H. et al., J. Pathol., 1993, 169, 317-322; Sonobe H. et al., J. Pathol., 1999, 187, 594-597) were cultured with Dulbecco's modified Eagle's medium (DMEM; Gibco Life Technologies, Grand Island, N.Y., USA) containing 10% heat-inactivated fetal bovine serum (FBS). Cells were incubated with […] autophagy detection agent (Dojindo Co., Kumamoto, Japan) according to the manufacturer's protocol (https://www.dojindo.com/TechnicalManual/Manual_[…].pdf). The […]-treated cells were then incubated with vehicle (DMEM+10% heat-inactivated FBS containing the same amount of DMSO and distilled water present in the corresponding CPI-613 and chloroquine experiments), CPI-613 (added […] of a 5 mg/mL solution of CPI-613 in DMSO per mL of medium to provide a 1 μg/mL concentration of CPI-613 in the medium), or the combination of CPI-613 (1 μg/mL as above) and chloroquine (added 2 μL of a 5 mg/mL solution of chloroquine in distilled water per mL of medium to provide a 10 μg/mL concentration of chloroquine in the medium) at 37° C. under 5% CO2 for 16 hours, and then visualized under a confocal fluorescence microscope (Leica TCS SP8; Leica Corporation, Germany) and analyzed with a Guava Easy-Cyte cell analyzer ([…], Calif., USA)."}, "[5]": {"settings": "Pardee et al., Clin Cancer Res. 2014; cited from earlier work"}, "[6]": {"tested_on": "BxPC-3 pancreatic cancer xenografts", "experiment": "Human pancreatic cancer xenograft, oral dosing", "type": "in vivo, CD-1 nude mice", "settings": "oral dose of 100 mg/week for 4 weeks", "description": "An acclimation period of 7 days was allowed between the arrival of the animal at the study site before tumor inoculation and experimentation. Mice were inoculated subcutaneously (SC) in the right flank with 2×10^6 human H460 NSCLC or BxPC3 pancreatic cancer cells that were suspended in 0.1 mL of Dulbeco's Phosphate Buffered Salt (PBS) solution using a 1 cc syringe with a 27-5/8 gauge needle. Tumor dimensions (length and width) were measured daily before, during and after treatment (using Vernier calipers) and the tumor volume was calculated using the prolate ellipsoid formula: (length×width^2)/2. Treatment with test or control articles began 8 days post tumor cell implantation when the tumor was approximately 300 mm^3.\nA similar study was conducted in CD-1 nude mice (n=9) inoculated with 2×10^6 BxPC-3 cells. The study was initiated when tumors reached an average size of 150 mm^3 (day 0) and CPI-613 was administered at an oral dose of 100 mg/week for 4 weeks. A comparator arm (n=9) was conducted with IP treatment at a weekly dose of 25 mg/kg."}, "[7]": {"tested_on": "human H460 NSCLC xenografts", "experiment": "Human non-small cell lung cancer xenograft, oral dosing", "type": "in vivo, CD1-Nu/Nu female mice", "settings": "oral 100 mg/kg on day 8, 15, 22, 29 post implantation", "description": "Human H460 NSCLC cells were obtained from American Type Cell Culture (ATCC) (catalog no. HTB-177, Manassas, Va.). These cells tested negative for viral contamination using the Mouse Antibody Production (MAP) test, performed by Charles River Labs Molecular Division, upon the receipt of the tumor cells from ATCC. The tumor cells were maintained at 37° C. in a humidified 5% CO2 atmosphere in T225 tissue culture flasks containing 50 mL of Roswell Park Memorial Institute (RPMI)-1640 solution with 10% Fetal Bovine Serum (FBS) and 2 mM L-glutamine. Cells were split at a ratio of 1:10 every 2-3 days by trypsinization and resuspended in fresh medium in a new flask. Cells were harvested for experiments in the same way at 70-90% confluency.\nCD1-Nu/Nu female mice, ˜4-6 weeks old were obtained from Charles River Laboratories. Mice were housed 5 to a cage in a micro-isolator room in the Department of Animal Laboratory Research of New York State University (SUNY) at Stony Brook. Light-dark cycles were 12 h each daily, with light from 7 a.m. to 7 p.m. […]\nAn acclimation period of 7 days was allowed between the arrival of the animal at the study site before tumor inoculation and experimentation. […] Tumor dimensions (length and width) were measured daily before, during and after treatment (using Vernier calipers) and the tumor volume was calculated using the prolate ellipsoid formula: (length×width^2)/2. […]"}, "[8]": {"tested_on": "HS-MM cells", "experiment": "Annexin V / propidium iodide cell death staining in HS-MM cells", "type": "cell-based", "settings": "necrostatin-1 5, 10 or 50 μM with CPI-613 1 μg/mL + chloroquine 10 μg/mL", "description": "HS-MM cells (Sonobe H. et al., J. Pathol., 1993, 169, 317-322; Sonobe H. et al., J. Pathol., 1999, 187, 594-597) were cultured with Dulbecco's modified Eagle's medium (DMEM; Gibco Life Technologies, Grand Island, N.Y., USA) containing 10% heat-inactivated fetal bovine serum (FBS). Cells were incubated with vehicle (DMEM+10% heat-inactivated FBS containing the same amount of DMSO and distilled water present in the corresponding CPI-613, chloroquine, and necrostatin-1 experiments), chloroquine (10 μg/mL), CPI-613 (1 μg/mL or 10 μg/mL), the combination of chloroquine (10 μg/mL) and CPI-613 (100 ng/mL, 1 μg/mL, or 10 μg/mL), or the combination of chloroquine (10 μg/mL) and CPI-613 (1 μg/mL) in the presence of necrostatin-1 (5 μM, 10 μM, or 50 μM), and then double stained with a fluorescein isothiocyante (FITC)-conjugated Annexin V and propidium iodide (PI) (PromoCell GMbH, Heidelberg, Germany) followed by analysis with a confocal fluorescence microscope and cell analyzer. The chloroquine and CPI-613 were added to the media from 5 mg/mL stock solutions in distilled water or DMSO, respectively, as in Example 11. The necrostatin-1 was added to the media from a 5 mg/mL stock solution in DMSO."}},
  "data": [
    {"smiles": "O=C(O)CCCCC(CCSCc1ccccc1)SCc1ccccc1", "note": "(stereo not shown) [6,8-bis-benzylthio-octanoic acid]", "values": [
      {"measurement": "acute toxicity with extra air in dead space of IV catheter", "setting": "[1]; accidental co-administration of air during IV administration, animal studies", "result": "potential to induce acute toxicity"},
      {"measurement": "local reaction on leakage into the perivascular space", "setting": "[1]; in vivo, iv", "result": "can induce significant local inflammation"},
      {"measurement": "induction of autophagy (LC3-II blot)", "setting": "[2]", "result": "induces autophagy in AML cells"},
      {"measurement": "oral bioavailability (conclusion in words)", "setting": "[3]", "result": "orally bioavailable"},
      {"measurement": "induction of autophagy (DALGreen fluorescence)", "setting": "[4]; CPI-613 1 μg/mL", "result": "induces autophagy in HS-MM cells"},
      {"measurement": "half-life after IV dosing", "setting": "[5]", "result": "1 to 2", "unit": "h"},
      {"measurement": "tumor growth effect", "setting": "[6]", "result": "especially pronounced"},
      {"measurement": "tumor growth versus 5% dextrose or untreated", "setting": "[7]", "result": "grew much more slowly"}
    ]},
    {"smiles": "CN1C(=O)C(Cc2c[nH]c3ccccc23)NC1=S", "note": "(stereo not shown) [necrostatin-1]", "values": [
      {"measurement": "effect on cell death induced by CPI-613 plus chloroquine", "setting": "[8]", "result": "did not affect cell death"}
    ]},
    {"smiles": "CCN(CC)CCCC(C)Nc1ccnc2cc(Cl)ccc12", "note": "(stereo not shown) [chloroquine, reference compound]", "values": [
      {"measurement": "blocking of CPI-613 autophagy induction", "setting": "[4]; chloroquine 10 μg/mL with CPI-613 1 μg/mL", "result": "autophagy induction can be blocked"}
    ]}
  ]
}
